Laboratory results taken from patent publication US20180028516A1, “METHODS AND DEVICES FOR THE TREATMENT OF OCULAR DISEASES IN HUMAN SUBJECTS” (CLEARSIDE BIOMEDICAL, INC., priority 2012, published 2018).

Assays:
[1] = tested on: subretinal endotoxin-induced model of posterior segment uveitis; test: Subretinal endotoxin-induced model of posterior segment uveitis, pretreatment with SCS or IVT TA (Example 11); type: in vivo, New Zealand White rabbits
Description: In this study, the effects of pretreatment with suprachoroidal or intravitreal triamcinolone acetonide (TA) in a subretinal endotoxin-induced model of posterior segment uveitis in New Zealand White rabbits was evaluated.
On Day 1, female rabbits (4 eyes/group) received a single unilateral injection of vehicle or 4 mg TA (Triesence®, 40 mg/mL suspension, Alcon Labs) into the suprachoroidal space (SCS) using a 33 g 750 μm microneedle, or a 4 mg TA IVT injection using a standard 30 g needle. On Day 6, each animal received a single unilateral subretinal injection of lipopolysaccharide (LPS, 20-30 μL, 203 μg/g of 1% sodium hylauronate) to induce ocular inflammation in the treated eye. Animals were monitored for 22 days following dose administration. Endpoints included body weights, ocular observations, slit lamp biomicroscopy with McDonald-Shadduck scoring and photography, indirect ophthalmoscopy, fundus photography, intraocular pressure (IOP), and histopathology. A summary of the study design is shown below, in Table 6.

[2] = tested on: LPS-induced acute posterior uveitis; test: Ocular inflammatory scores in LPS-induced porcine uveitis (Example 13); conditions: for mean cumulative inflammatory scores compared with Group 1 (BSS IVT/vehicle SCS): Days 1, 2, and 3
Description: A totalof 20 domestic wearrling pigs (Sus sergfir domesticus), male or female, (12-20 kg) were used in this study. Only the left eye was tested in this study; the right eye was not injected, examined, or treated. All injections were performed with the pigs anesthetized (intramuscular Telazol-Ketamine-Xylazine and isoflorane in oxygen via mask) and the eve prepared aseptically (sterile 5% betadine solution followed by irrigation with sterile eyewash).
Twenty-four hours prior to SCS or IVT injection of TA or vehicle (Day-1), 100 ng of lipopolysaccharide (ITS; E. coli 055:B55; Sigma, Inc. St. Louis, Mo.) in 100 μL BSS (Balanced Salt Solution, Alcon Laboratories, Inc., Forth Worth, Tex.), was injected using a 27 gauge needle into the posterior central vitreous.
Twenty-four hours after the LPS injection (Day 0), 0.2 mg or 2.0 mg of commercially-available TA (Triesence®; Alcon Laboratories, Inc, Forth Worth, Tex.) or vehicle was injected either intravitreally (27 gauge needle) or into the SCS (33 gauge, 850 μm microneedle) in eyes prepared aseptically (Table 7). The dose of TA was selected to represent a typical therapeutic dose (e.g., 2.0 mg) and a dose 10 times less to compare therapeutic effect.
All injections were made superiorly, approximately 5-6 mm posterior to the limbus. […] TA was diluted using vehicle to provide a low dose (0.2 mg/100 μL) or high dose (2.0 mg/100 μL). The vehicle (100 uL) was also used in the control groups, but without TA.
A Hackett-McDonald microscopic ocular inflammatory scoring system, modified for use in pigs (instead of New Zealand White rabbits) as described below, was used to evaluate the ocular anterior segment and anterior vitreous. Scores of the conjunctiva (congestion, swelling, discharge, 0-4); aqueous flare (0-3); pupillary light reflex (0-2); iris involvement (0-4); cornea (involvement and area, 0-4); pannus (vascularization, 0-2); and anterior vitreal cellular infiltrate (0-4) were summed to provide a single inflammatory score for each animal for each examination. Using a portable slit lamp biomicroscope (Zeiss HSO-10, Carl Zeiss Meditec, Inc. USA), ocular inflammatory scores were evaluated at Day -1 (prior to LPS injection), at Day 0 (prior to vehicle or TA injection), then at 1, 2 and 3 days after injection,
For histologic grading, two independent observers masked to the treatment group evaluated each eye at each time point and the average resulting scores for each animal were used for analysis, Parametric normally distributed data (i.e., IOP, ERG, retinal thickness, cell counts, protein concentration) were compared by time point for each group using 1-way ANOVA models with Tukey-Kramer post-hoc analysis. For non-parametric data (i.e., clinical scores, histologic grades), Wilcoxon tests were conducted per animal by time point. Differences were considered significant at P<0.05. Results and probAilities were calculated using computerized statistical software (JMP 10, SAS Inc. Cary, N.C.).

[3] = Electroretinography in porcine uveitis study (Example 13); type: in vivo, domestic weanling pigs; conditions: after SCS or IVT injections of 0.2 or 2.0 mg TA
Description: With the pigs anesthetized on Days −1, 0 and 3, and pupils dilated with 1% tropicamide HCl. and corneas anesthetized with 0.5% proparacaine HCl, whole field ERGs were recorded from the left eve prior to injections. All animals were dark adapted for 15 minutes prior to ERG. A monopolar contact lens electrode (ERG-jet, La Chaux des Fonds, Switzerland) was placed on the cornea to serve as an active electrode. A subdermal electrode at the lateral canthus served as the indifferent electrode. A Barraquer eyelid speculum was placed to maintain open eyelids and a subdermal needle electrode was inserted dorsally as the ground electrode. EKGs were elicited by brief flashes at 0.33 Hz delivered with a mini-ganzfehl photostimulator (Roland Instruments, Wiesbaden, Germany) at maximal intensity. Twenty responses were amplified, filtered, and averaged (Retiport Electrophysiologic Diagnostic Systems, Rolland Instruments, Wiesbaden, Germany). B wave amplitudes were recorded from each pig at the designated times.

[4] = Clinical observations and tolerability, SCS vs IVT TA (Example 10); type: in vivo, New Zealand White rabbit
Description: (§1) In this study, the ocular and systemic pharmacokinetics (PK) of triar cinolone acetonide (TA) in the New Zealand White rabbit following intravitreal […] injection or administration into the suprachoroidal space (SCS) using a hollow rnicroneedle were evaluated.
(§2) On Day 0, male rabbits (5 per group) received a single bilateral administration of 4 mg TA (100 μL Triesence triamcinolone formulationAlcon Labs) via SCS injection using a 33 g 750 μm microneedle or an IVT injection using a standard 30 g needle. The study design is shown below in Table 4.
(§3) Clinical observations, body weights, and intraocular pressure (IOP) were assessed up to 13 weeks post-dose. Plasma and ocular matrixes (aqueous humor (AH), lens, iris/ciliary body (ICB), vitreous humor (VH), sclera/choroid (SC), and retina) were sampled on Days 1, 14, 28, 56, and 91. Plasma (LLOQ 0.5 ng/mL) and ocular matrixes (LLOQ 2 -15 ng/mL) were analyzed using LC-MS/MS, and resulting data were assessed for noncompartmentat PK parameters.

[5] = Ocular and systemic pharmacokinetics of TA, SCS vs IVT (Example 10); type: in vivo, New Zealand White rabbit
Description: as §1, §2, §3

For CC1(C)O[C@@H]2C[C@H]3[C@@H]4CCC5=CC(=O)C=C[C@]5(C)[C@@]4(F)[C@@H](O)C[C@]3(C)[C@]2(C(=O)CO)O1 [TA, triamcinolone acetonide], the “Iris vessel dilation and tortuosity compared with the SCS vehicle group” value ([1]; 4 mg TA IVT) was “reduced to a lesser extent”, the “Vitritis, aqueous flare, and cellularity compared to SCS vehicle eyes” value ([1]; 4 mg TA IVT) was “substantially less severe” and the “inflammation as assessed histopathologically compared with the vehicle group” value ([1]; 4 mg TA IVT) was “marked reduction”. The “Iris vessel dilation and tortuosity compared with the SCS vehicle group” value ([1]; 4 mg TA SCS) was “reduced”, the “Vitritis, aqueous flare, and cellularity compared to SCS vehicle eyes” value ([1]; 4 mg TA SCS) was “substantially less severe” and the “inflammation as assessed histopathologically compared with the vehicle group” value ([1]; 4 mg TA SCS) was “marked reduction”. The “effectiveness in reducing the inflammatory response, SCS vs IVT” value ([1]; 4 mg TA SCS by hollow microneedle) was “as effective as 4 mg IVT TA”, the “overall inflammatory response / inflammatory endpoints compared to vehicle control” value ([1]; 4 mg TA SCS, pretreatment Day 1, LPS Day 6) was “significant reduction” and the “effectiveness in reducing acute ocular inflammation” value ([2]; 0.2 mg TA IVT) was “less effective”. For the same compound, the “mean cumulative inflammatory scores compared with Groups 1, 3, 4 and 6” value ([2]; 0.2 mg TA IVT (Group 5), 24 hours after treatment (Day 1)) was “significantly higher”, the “mean cumulative inflammatory scores compared with SCS TA (Groups 3 and 4) and Group 1” value ([2]; 0.2 mg TA IVT, 48 and 72 hours after treatment) was “significantly higher mean scores” and the “mean cumulative inflammatory scores compared with Group 1 (BSS IVT/vehicle SCS)” value ([2]; 0.2 mg TA SCS (Group 3)) was “not significantly different”. For the same compound, the “mean cumulative inflammatory scores compared with Group 1 (BSS IVT/vehicle SCS)” value ([2]; 2.0 mg TA SCS (Group 4)) was “not significantly different”, the “effectiveness in reducing inflammation compared with 2.0 mg TA IVT injection” value ([2]; SCS injection of 0.2 mg and 2.0 mg of TA) was “as effective” and the “decrease in effective dose when the drug is delivered to the SCS” value ([2]; SCS vs IVT) was 10 fold. For the same compound, the “retinal dysfunction (decrease in b wave amplitude)” value [3] was “no evidence of retinal dysfunction”, the “adverse effects related to treatment or method of administration” value ([4]; SCS and IVT, 4 mg TA) was “no observed adverse effects” and the tolerability ([4]; both IVT and SCS TA, 4 mg, albino rabbit) was “well tolerated”. For the same compound, the “increase of AUC in VH, IVT TA compared with SCS TA” value ([5]; 4 mg TA) was 52 fold, the “increase of AUC in aqueous Humor, IVT TA compared with SCS TA” value ([5]; 4 mg TA) was 63 fold and the “increase of AUC in iris/ciliary body, IVT TA compared with SCS TA” value ([5]; 4 mg TA) was 44 fold. The “increase of AUC in lens, IVT TA compared with SCS TA” value ([5]; 4 mg TA) was 690 fold, the “increase of AUC in the sclera/choroid, SCS TA compared with IVT TA” value ([5]; 4 mg TA) was 11 fold and the “increase of Cmax in VH, IVT TA compared with SCS TA” value ([5]; 4 mg TA) was 4 fold. The “increase of Cmax in aqueous Humor, IVT TA compared with SCS TA” value ([5]; 4 mg TA) was 250 fold, the “increase of Cmax in iris/ciliary body, IVT TA compared with SCS TA” value ([5]; 4 mg TA) was 24 fold and the “increase of Cmax in lens, IVT TA compared with SCS TA” value ([5]; 4 mg TA) was 290 fold. For the same compound, the “increase of Cmax in the sclera/choroid, SCS TA compared with IVT TA” value ([5]; 4 mg TA) was 10 fold, the AUC0-t ([5]; Aqueous Humor, IVT 4 mg TA) was 8,500 ng · day/mL and the Clast ([5]; Aqueous Humor, IVT 4 mg TA) was 42 ng/mL. It also gave a Cmax ([5]; Aqueous Humor, IVT 4 mg TA) of 269 ng/mL, a Tlast ([5]; Aqueous Humor, IVT 4 mg TA) of 91 days and a Tmax ([5]; Aqueous Humor, IVT 4 mg TA) of 336 h. It also gave a Clast ([5]; Aqueous Humor, SCS 4 mg TA) of 16 ng/mL, a Cmax ([5]; Aqueous Humor, SCS 4 mg TA) of 16 ng/mL and a Tlast ([5]; Aqueous Humor, SCS 4 mg TA) of 28 days. The AUC0-t ([5]; Iris/Ciliary body, IVT 4 mg TA) was 40,900,000 ng · day/mL, the Clast ([5]; Iris/Ciliary body, IVT 4 mg TA) was 463,000 ng/mL and the Cmax ([5]; Iris/Ciliary body, IVT 4 mg TA) was 1,260,000 ng/mL. The Tlast ([5]; Iris/Ciliary body, IVT 4 mg TA) was 91 days, the Tmax ([5]; Iris/Ciliary body, IVT 4 mg TA) was 24 h and the AUC0-t ([5]; Iris/Ciliary body, SCS 4 mg TA) was 1,190,000 ng · day/mL. For the same compound, the “AUC0-∞” value ([5]; Iris/Ciliary body, SCS 4 mg TA) was 1,190,000 ng · day/mL, the Clast ([5]; Iris/Ciliary body, SCS 4 mg TA) was 247 ng/mL and the Cmax ([5]; Iris/Ciliary body, SCS 4 mg TA) was 50,200 ng/mL. The T1/2 ([5]; Iris/Ciliary body, SCS 4 mg TA) was 220 h, the Tlast ([5]; Iris/Ciliary body, SCS 4 mg TA) was 91 days and the Tmax ([5]; Iris/Ciliary body, SCS 4 mg TA) was 24 h. For the same compound, the AUC0-t ([5]; Lens, IVT 4 mg TA) was 12,600,000 ng · day/mL, the Clast ([5]; Lens, IVT 4 mg TA) was 40,300 ng/mL and the Cmax ([5]; Lens, IVT 4 mg TA) was 540,000 ng/mL. The Tlast ([5]; Lens, IVT 4 mg TA) was 91 days, the Tmax ([5]; Lens, IVT 4 mg TA) was 336 h and the AUC0-t ([5]; Lens, SCS 4 mg TA) was 27,400 ng · day/mL. For the same compound, the Clast ([5]; Lens, SCS 4 mg TA) was 9 ng/mL, the Cmax ([5]; Lens, SCS 4 mg TA) was 1,870 ng/mL and the Tlast ([5]; Lens, SCS 4 mg TA) was 91 days. For the same compound, the Tmax ([5]; Lens, SCS 4 mg TA) was 24 h, the AUC0-t ([5]; Retina, IVT 4 mg TA) was 25,100,000 ng · day/mL and the “AUC0-∞” value ([5]; Retina, IVT 4 mg TA) was 26,300,000 ng · day/mL. For the same compound, the Clast ([5]; Retina, IVT 4 mg TA) was 41,500 ng/mL, the Cmax ([5]; Retina, IVT 4 mg TA) was 781,000 ng/mL and the T1/2 ([5]; Retina, IVT 4 mg TA) was 504 h. The Tlast ([5]; Retina, IVT 4 mg TA) was 91 days, the Tmax ([5]; Retina, IVT 4 mg TA) was 336 h and the AUC0-t ([5]; Retina, SCS 4 mg TA) was 24,600,000 ng · day/mL. The Clast ([5]; Retina, SCS 4 mg TA) was 2,600 ng/mL, the Cmax ([5]; Retina, SCS 4 mg TA) was 907,000 ng/mL and the Tlast ([5]; Retina, SCS 4 mg TA) was 91 days. For the same compound, the Tmax ([5]; Retina, SCS 4 mg TA) was 24 h, the “quantifiability of TA in ocular matrixes” value ([5]; SCS and IVT, 4 mg TA) was “quantifiable in all ocular matrixes through Day 91” and the AUC0-t ([5]; Sclera/choroid, IVT 4 mg TA) was 8,640,000 ng · day/mL. For the same compound, the “AUC0-∞” value ([5]; Sclera/choroid, IVT 4 mg TA) was 10,300,000 ng · day/mL, the Clast ([5]; Sclera/choroid, IVT 4 mg TA) was 27,100 ng/mL and the Cmax ([5]; Sclera/choroid, IVT 4 mg TA) was 235,000 ng/mL. The T1/2 ([5]; Sclera/choroid, IVT 4 mg TA) was 1030 h, the Tlast ([5]; Sclera/choroid, IVT 4 mg TA) was 91 days and the Tmax ([5]; Sclera/choroid, IVT 4 mg TA) was 336 h. The AUC0-t ([5]; Sclera/choroid, SCS 4 mg TA) was 101,000,000 ng · day/mL, the “AUC0-∞” value ([5]; Sclera/choroid, SCS 4 mg TA) was 101,000,000 ng · day/mL and the Clast ([5]; Sclera/choroid, SCS 4 mg TA) was 34,000 ng/mL. For the same compound, the Cmax ([5]; Sclera/choroid, SCS 4 mg TA) was 2,860,000 ng/mL, the T1/2 ([5]; Sclera/choroid, SCS 4 mg TA) was 264 h and the Tlast ([5]; Sclera/choroid, SCS 4 mg TA) was 91 days. For the same compound, the Tmax ([5]; Sclera/choroid, SCS 4 mg TA) was 24 h, the AUC0-t ([5]; Vitreous Humor, IVT 4 mg TA) was 77,600,000 ng · day/mL and the “AUC0-∞” value ([5]; Vitreous Humor, IVT 4 mg TA) was 85,500,000 ng · day/mL. For the same compound, the Clast ([5]; Vitreous Humor, IVT 4 mg TA) was 218,000 ng/mL, the Cmax ([5]; Vitreous Humor, IVT 4 mg TA) was 1,640,000 ng/mL and the T1/2 ([5]; Vitreous Humor, IVT 4 mg TA) was 600 h. For the same compound, the Tlast ([5]; Vitreous Humor, IVT 4 mg TA) was 91 days, the Tmax ([5]; Vitreous Humor, IVT 4 mg TA) was 24 h and the AUC0-t ([5]; Vitreous Humor, SCS 4 mg TA) was 3,460,000 ng · day/mL. The Clast ([5]; Vitreous Humor, SCS 4 mg TA) was 10 ng/mL, the Cmax ([5]; Vitreous Humor, SCS 4 mg TA) was 287,000 ng/mL and the Tlast ([5]; Vitreous Humor, SCS 4 mg TA) was 91 days. For the same compound, the Tmax ([5]; Vitreous Humor, SCS 4 mg TA) was 24 h, the systemic exposure ([5]; either route (IVT or SCS), 4 mg TA) was “minimal” and the “TA peak concentration in plasma” value ([5]; peaked on Day 1, both groups (SCS and IVT, 4 mg TA)) was 4 ng/mL.
